Measured values taken from patent US4886817A, “Imidazolidinones as brain activators” (Tanabe Seiyaku Co., Ltd., priority 1986, dated 1989).

Legend:
[1] = Gastric juice secretion in pylorus ligated rats; type: in vivo; details: 30 mg/kg, intraperitoneal, 5 hours after administration
Source text: (§1) In addition, Compound (I) and a salt thereof may have also an inhibitory effect on gastric juice secretion and may be used for therapy and prophylaxy of peptic ulcer. […] Further, the compound of the present invention is low in toxicity and has high safety as pharmaceuticals.

[2] = Survival time of mice under hypobaric hypoxia (closed container, reduced pressure); type: in vivo; details: 30 mg/kg (p.o.); pressure 165 mmHg
Source text: (§2) The compound (I) of the present invention and a salt thereof are useful as a cerebral activator. More particularly, Compound (I) and a salt thereof can effectively prolong the survival time of mice suffering from KCN-induced cerebral anoxia or hypobaric hypoxia, and show potent protective action against brain ischemia. Compound (I) and a salt thereof can also improve KCN-induced cerebral energy metabolism disorders. Further, Compound (I) and a salt thereof improve scopolamine-induced amnesia, and show potent anticonvulsive, AChE (acetylchline esterase) inhibitory and GABA-mimetic or GABA-potentiative actions. […] Based on these therapeutic effects, Compound (I) and a salt thereof can be used as a cerebral metabolism activator and/or a nootropic drug.

[3] = Spontaneous locomotion in mice which received apomorphine; type: in vivo; details: 45 mg/kg, oral; apomorphine 0.03 or 0.1 mg/kg, s.c.
Source text: Compound (I) of the present invention and a salt thereof can also be used as antidepressants because it can effectively shorten the immobility time of mice during forced swimming thereof and also increase spontaneous locomotor activity.

[4] = KCN-induced cerebral energy metabolism disorders; type: in vivo
Source text: as §2

Acute toxicity (LD50) = details: mouse, in vivo; oral, male Std/ddY mice, estimated 7 days after administration
Source text: as §1

[5] = Preventive effect on maximum electroshock-induced convulsion; type: in vivo, male Std/ddY mice; details: 100 mg/kg, oral, 1 hour before electroshock
Source text: (Preventive effect on maximum electroshock-induced convulsion)
One hour after oral administration of a test compound to male Std/ddY mice, maximum electroshock (AC 900 V, 25 mA, 0.15 second) was delivered to said mice through corneal electrodes from an electrical stimulator.

For O=C1N(C/C=C/C=C/c2ccccc2Cl)CCN1c1ccncc1 [(2E,4E)-1-[5-(2-chlorophenyl)-2,4-pentadienyl]-3-(4-pyridyl)-2-imidazolidinone], which “decrease in gastric juice secretion” value [1] is on record?
The value was at least 42%.

What does the source list for O=C1N(C/C=C/c2ccccc2)CCN1c1cccnc1 [(E)-1-cinnamyl-3-(3-pyridyl)-2-imidazolidinone]?
survival time of mice which suffered from hypobaric hypoxia [2]: significantly prolong the survival time; spontaneous locomotion in mice which received apomorphine [3]: significant increase; KCN-induced cerebral metabolism disorders [4]: improve the KCN-induced cerebral metabolism disorders; decrease in energy metabolism-relating substances (ATP, creatine-P, glucose or glycogen in the brain) induced by KCN [4]: inhibit the decrease; LD50 at 168 h (Acute toxicity (LD50)): > 1500 mg/kg

Which “inhibition of tonic extensive convulsion induced by maximum electroshock” value (shortened to “inhibition”) [5] does the source give for O=C1N(C/C=C/c2ccc(Cl)cc2)CCN1c1cccnc1 [compound 1, (E)-1-(4-chlorocinnamyl)-3-(3-pyridyl)-2-imidazolidinone] here?
The value was “completely inhibited”.

For O=C1N(C/C=C/c2ccc(Cl)cc2)CCN1c1ccncc1 [compound 2, (E)-1-(4-chlorocinnamyl)-3-(4-pyridyl)-2-imidazolidinone], which “inhibition” value [5] is on record?
Its value is “completely inhibited”.

What does the source list for Cl.O=C1N(C/C=C/c2ccccc2)CCN1c1cccnc1 [compound 3, (E)-1-cinnamyl-3-(3-pyridyl)-2-imidazolidinone hydrochloride]?
decrease in gastric juice secretion [1]: ≥ 42%; inhibition of tonic extensive convulsion induced by maximum electroshock [5]: completely inhibited

Which “inhibition” value [5] does the source give for O=C1N(C/C=C/c2ccccc2)CCN1c1ncccn1 [compound 4, (E)-1-cinnamyl-3-(2-pyrimidinyl)-2-imidazolidinone] here?
Its value is “completely inhibited”.

For O=C1N(C/C=C/c2cccc(Cl)c2)CCN1c1ccncc1 [compound 5, (E)-1-(3-chlorocinnamyl)-3-(4-pyridyl)-2-imidazolidinone], which “inhibition” value [5] is on record?
Its value is “completely inhibited”.

Which “inhibition” value [5] does the source give for O=C1N(C/C=C/c2ccccc2Cl)CCN1c1ccncc1 [compound 6, (E)-1-(2-chlorocinnamyl)-3-(4-pyridyl)-2-imidazolidinone] here?
The value was “completely inhibited”.

Which “inhibition” value [5] does the source give for Cc1cccc(/C=C/CN2CCN(c3ccncc3)C2=O)c1 [compound 7, (E)-1-(3-methylcinnamyl)-3-(4-pyridyl)-2-imidazolidinone] here?
Its value is “completely inhibited”.

Which “inhibition” value [5] does the source give for O=C1N(CCC/C=C/c2ccccc2)CCN1c1ccncc1 [compound 8, (E)-1-(5-phenyl-4-pentenyl)-3-(4-pyridyl)-2-imidazolidinone] here?
The value was “completely inhibited”.

For O=C1N(C/C=C\c2ccccc2)CCN1c1ccncc1 [compound 9, (Z)-1-cinnamyl-3-(4-pyridyl)-2-imidazolidinone], which “inhibition” value [5] is on record?
Its value is “completely inhibited”.
